According to patent publication US20160136160A1, “METHOD FOR PREVENTING AND/OR TREATING CHRONIC TRAUMATIC ENCEPHALOPATHY-II” (priority 2013, published 2016):

Tested on: tau phosphorylation
Experiment: Tau phosphorylation after concussive injury in the rat (immunohistology for phosphorylated tau)
Format: in vivo
Details: rat concussion model; 1 mg/kg intravenously at 30 minutes after induction of injury; assessed at 3 day time point
Excerpt: Note that concussive injury in the rat causes extensive tau phosphorylation (B) by 3 days after the concussive event compared to non-injured animals (A).
Having established that hyperphosphorylated tau accumulates perivascularly following concussive injury, we used an animal model of concussion to investigate whether concussion causes perivascular release of substance P. We developed a rodent model of concussion to replicate the concussive event (Donkin et al., 2004, 7th International Neurotrauma Symposium, pp 75-78, Medimond Publishers, Bologna, Italy) and subsequently determined whether substance P was released after such an event. There was a clear increase in brain perivascular substance P immunoreactivity after the concussive event (FIG. 2).
Having shown that mechanical injury causes release of substance P after concussive injury, we then investigated whether a compound of formula (I) reduces tau hyperphosphorylation after concussive injury. […] Note that concussive injury in the rat causes extensive tau phosphorylation (B) by 3 days after the concussive event compared to non-injured animals (A). […] Thus, administration of a compound of formula (I″) prevents tau hyperphosphorylation and thus prevents the development of CTE.

Cc1ccccc1-c1cc(N2CCN(C)CC2)ncc1C(=O)N(C)Cc1cc(C(F)(F)F)cc(C(F)(F)F)c1 [formula (I″)]
effect on tau phosphorylation after concussive injury: almost complete inhibition of tau phosphorylation
